Reference: publication PMC7316778 (Nature Communications, 2020)
Several values for one entry are separate records, joined by “and”; a condition that tells them apart may be missing. Equal entries are not always repeated. Where two headings read alike, the source gives them in different places.

Assays:
[1] = biological target: TGFBR2 (Homo sapiens, UniProt P37173); assay: SelectScreen kinase assay
Procedure: (§1) Selectivity profiling assays were performed by the Invitrogen SelectScreen™ Services. […] The concentration of ATP was selected to be equal to the KM, unless indicated otherwise.

[2] = biological target: T1, PDK1 (Homo sapiens, UniProt O15530); assay: SelectScreen kinase assay
T1 sequence (O15530 1-556): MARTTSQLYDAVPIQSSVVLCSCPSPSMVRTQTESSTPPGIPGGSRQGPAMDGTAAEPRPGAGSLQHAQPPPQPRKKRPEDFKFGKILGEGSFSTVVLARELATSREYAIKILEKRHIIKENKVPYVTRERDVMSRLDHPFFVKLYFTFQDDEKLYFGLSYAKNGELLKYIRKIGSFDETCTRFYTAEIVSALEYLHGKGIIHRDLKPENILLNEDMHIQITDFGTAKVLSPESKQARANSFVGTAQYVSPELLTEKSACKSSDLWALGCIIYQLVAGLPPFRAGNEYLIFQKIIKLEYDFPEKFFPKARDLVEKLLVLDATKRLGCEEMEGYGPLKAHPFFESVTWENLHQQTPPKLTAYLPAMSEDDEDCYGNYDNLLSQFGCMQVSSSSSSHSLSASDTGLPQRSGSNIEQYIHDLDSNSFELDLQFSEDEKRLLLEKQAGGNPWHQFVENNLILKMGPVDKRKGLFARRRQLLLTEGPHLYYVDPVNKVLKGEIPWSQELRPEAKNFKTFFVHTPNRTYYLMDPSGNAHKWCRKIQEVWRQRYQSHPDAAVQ
Procedure: as §1

[3] = biological target: LRRK2 FL (Homo sapiens, UniProt Q5S007); assay: SelectScreen kinase assay
Procedure: as §1

[4] = biological target: ~150 kDa protein (Homo sapiens, UniProt O14976); assay: Gel-based target engagement in HL-60 neutrophils; settings: HL-60, read-out: Inhibition of off-target labeling
Procedure: Data represent means ± SEM.
The term in situ is used to designate experiments in which live cell cultures are treated with inhibitor, whereas the term in vitro refers to experiments in which the inhibitor is incubated with cell lysates. Compounds were diluted in growth medium from a 1000x concentrated stock solution in DMSO. […] After 48 h, cells were treated with compound for 1 h. Cells were collected by suspension in PBS and centrifuged (1000g, 5 min, rt). Pellets were flash-frozen in liquid nitrogen and stored at −80 °C until use. For in situ treatment post-differentiation, HL-60 cells were differentiated as described above and incubated with compound for 1 h unless specified otherwise. Cells were collected by suspension for non-adherent cells and trypsinization for adherent cells. After collection, cells were centrifuged (200g, 5 min, rt) and washed in equal volume of PBS (1000g, 5 min, rt). Cell pellets were flash-frozen in liquid nitrogen and stored at −80 °C until use.

[5] = biological target: T2, PRKCI (PKC iota) (Homo sapiens, UniProt P41743); assay: SelectScreen kinase assay; settings: for Inhibition at 1 µM (%): PRKCI (PKC iota), ZLYTE, ATP Km app
T2 sequence (P41743 1-596): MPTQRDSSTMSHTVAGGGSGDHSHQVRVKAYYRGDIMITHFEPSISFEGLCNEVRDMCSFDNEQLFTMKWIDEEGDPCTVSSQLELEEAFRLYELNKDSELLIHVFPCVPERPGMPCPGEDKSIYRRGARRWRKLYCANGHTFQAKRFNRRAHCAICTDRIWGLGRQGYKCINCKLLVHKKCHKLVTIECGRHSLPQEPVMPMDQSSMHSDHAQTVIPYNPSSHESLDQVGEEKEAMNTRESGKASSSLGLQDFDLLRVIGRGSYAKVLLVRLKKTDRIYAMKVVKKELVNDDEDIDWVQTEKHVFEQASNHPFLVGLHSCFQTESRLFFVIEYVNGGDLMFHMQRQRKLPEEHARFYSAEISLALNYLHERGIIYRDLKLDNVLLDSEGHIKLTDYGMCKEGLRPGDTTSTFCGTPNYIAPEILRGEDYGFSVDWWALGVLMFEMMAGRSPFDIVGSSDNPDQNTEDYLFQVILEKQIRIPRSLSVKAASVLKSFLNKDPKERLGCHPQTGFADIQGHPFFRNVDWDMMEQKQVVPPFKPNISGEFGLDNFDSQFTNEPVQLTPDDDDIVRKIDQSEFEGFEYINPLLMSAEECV
Procedure: as §1

[6] = biological target: ZAK (Homo sapiens, UniProt Q9NYL2); assay: SelectScreen kinase assay; settings: for Inhibition at 1 µM (%): LanthaScreen Binding
Procedure: as §1

[7] = biological target: T3, PLK4 (Homo sapiens, UniProt O00444); assay: SelectScreen kinase assay
T3 sequence (O00444 1-970): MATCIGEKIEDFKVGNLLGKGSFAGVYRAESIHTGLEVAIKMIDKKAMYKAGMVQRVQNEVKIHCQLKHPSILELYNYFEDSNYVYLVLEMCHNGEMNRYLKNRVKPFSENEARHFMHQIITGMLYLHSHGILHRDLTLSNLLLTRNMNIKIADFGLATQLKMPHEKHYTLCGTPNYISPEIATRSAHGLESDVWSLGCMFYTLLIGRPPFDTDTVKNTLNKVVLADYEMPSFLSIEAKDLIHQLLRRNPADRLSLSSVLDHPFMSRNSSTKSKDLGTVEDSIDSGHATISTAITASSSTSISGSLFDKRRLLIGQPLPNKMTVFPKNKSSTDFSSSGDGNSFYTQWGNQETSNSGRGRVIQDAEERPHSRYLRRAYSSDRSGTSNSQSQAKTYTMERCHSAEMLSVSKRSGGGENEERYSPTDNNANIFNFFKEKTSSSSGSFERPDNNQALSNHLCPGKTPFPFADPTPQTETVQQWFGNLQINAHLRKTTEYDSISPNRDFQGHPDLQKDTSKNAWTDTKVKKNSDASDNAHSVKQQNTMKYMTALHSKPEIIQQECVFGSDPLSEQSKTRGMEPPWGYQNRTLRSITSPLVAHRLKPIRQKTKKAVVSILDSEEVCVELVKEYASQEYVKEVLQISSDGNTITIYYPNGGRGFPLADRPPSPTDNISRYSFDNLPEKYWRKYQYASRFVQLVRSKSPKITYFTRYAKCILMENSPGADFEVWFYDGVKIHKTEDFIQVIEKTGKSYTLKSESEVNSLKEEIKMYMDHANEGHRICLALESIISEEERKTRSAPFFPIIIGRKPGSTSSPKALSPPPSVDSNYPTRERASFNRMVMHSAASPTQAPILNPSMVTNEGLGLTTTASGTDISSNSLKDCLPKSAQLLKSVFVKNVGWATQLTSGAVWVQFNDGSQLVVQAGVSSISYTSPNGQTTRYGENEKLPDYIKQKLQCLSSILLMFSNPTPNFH
Procedure: as §1

[8] = biological target: CLK1 (Homo sapiens, UniProt P49759); assay: SelectScreen kinase assay
Procedure: as §1

[9] = 1 h, 1 μM WEL028, 1 h preincubation

Sequence of ZAK (Q9NYL2 whole entry): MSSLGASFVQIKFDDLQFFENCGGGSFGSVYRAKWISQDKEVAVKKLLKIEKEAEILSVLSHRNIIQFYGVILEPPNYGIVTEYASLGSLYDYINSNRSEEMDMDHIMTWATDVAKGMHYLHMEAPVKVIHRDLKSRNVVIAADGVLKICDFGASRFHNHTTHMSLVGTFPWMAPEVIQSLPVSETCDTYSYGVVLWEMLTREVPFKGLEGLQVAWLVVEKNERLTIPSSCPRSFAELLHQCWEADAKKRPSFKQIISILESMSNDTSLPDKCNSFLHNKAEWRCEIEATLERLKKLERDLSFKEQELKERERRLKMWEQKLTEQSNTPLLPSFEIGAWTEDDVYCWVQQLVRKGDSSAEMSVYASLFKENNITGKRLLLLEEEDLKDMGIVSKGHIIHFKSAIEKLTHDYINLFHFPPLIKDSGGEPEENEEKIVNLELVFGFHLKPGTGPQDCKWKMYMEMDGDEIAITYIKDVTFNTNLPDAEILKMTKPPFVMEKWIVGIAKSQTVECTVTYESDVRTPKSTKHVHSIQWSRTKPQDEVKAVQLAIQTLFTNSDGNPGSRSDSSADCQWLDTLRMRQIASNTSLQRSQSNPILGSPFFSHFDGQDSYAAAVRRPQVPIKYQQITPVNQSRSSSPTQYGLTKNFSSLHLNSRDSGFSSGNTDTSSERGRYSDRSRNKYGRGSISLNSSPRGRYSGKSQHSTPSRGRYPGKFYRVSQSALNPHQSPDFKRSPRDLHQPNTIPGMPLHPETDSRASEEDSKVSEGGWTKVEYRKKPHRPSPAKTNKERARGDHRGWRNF
Sequence of TGFBR2 (P37173 23-567): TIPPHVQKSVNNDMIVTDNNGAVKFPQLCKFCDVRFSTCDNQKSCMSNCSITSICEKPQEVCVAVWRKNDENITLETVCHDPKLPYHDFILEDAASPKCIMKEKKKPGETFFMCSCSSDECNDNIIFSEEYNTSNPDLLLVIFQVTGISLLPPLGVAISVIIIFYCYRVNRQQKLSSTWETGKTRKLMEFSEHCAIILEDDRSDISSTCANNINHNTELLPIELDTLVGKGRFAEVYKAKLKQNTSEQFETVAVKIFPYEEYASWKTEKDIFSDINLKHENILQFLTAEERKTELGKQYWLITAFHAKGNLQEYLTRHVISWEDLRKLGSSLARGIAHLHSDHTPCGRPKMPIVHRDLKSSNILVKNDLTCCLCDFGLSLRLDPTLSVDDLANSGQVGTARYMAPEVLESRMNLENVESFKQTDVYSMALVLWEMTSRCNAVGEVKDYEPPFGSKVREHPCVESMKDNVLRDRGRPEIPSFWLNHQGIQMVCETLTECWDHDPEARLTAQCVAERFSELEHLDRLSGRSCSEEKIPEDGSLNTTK
Sequence of LRRK2 FL (Q5S007 whole entry): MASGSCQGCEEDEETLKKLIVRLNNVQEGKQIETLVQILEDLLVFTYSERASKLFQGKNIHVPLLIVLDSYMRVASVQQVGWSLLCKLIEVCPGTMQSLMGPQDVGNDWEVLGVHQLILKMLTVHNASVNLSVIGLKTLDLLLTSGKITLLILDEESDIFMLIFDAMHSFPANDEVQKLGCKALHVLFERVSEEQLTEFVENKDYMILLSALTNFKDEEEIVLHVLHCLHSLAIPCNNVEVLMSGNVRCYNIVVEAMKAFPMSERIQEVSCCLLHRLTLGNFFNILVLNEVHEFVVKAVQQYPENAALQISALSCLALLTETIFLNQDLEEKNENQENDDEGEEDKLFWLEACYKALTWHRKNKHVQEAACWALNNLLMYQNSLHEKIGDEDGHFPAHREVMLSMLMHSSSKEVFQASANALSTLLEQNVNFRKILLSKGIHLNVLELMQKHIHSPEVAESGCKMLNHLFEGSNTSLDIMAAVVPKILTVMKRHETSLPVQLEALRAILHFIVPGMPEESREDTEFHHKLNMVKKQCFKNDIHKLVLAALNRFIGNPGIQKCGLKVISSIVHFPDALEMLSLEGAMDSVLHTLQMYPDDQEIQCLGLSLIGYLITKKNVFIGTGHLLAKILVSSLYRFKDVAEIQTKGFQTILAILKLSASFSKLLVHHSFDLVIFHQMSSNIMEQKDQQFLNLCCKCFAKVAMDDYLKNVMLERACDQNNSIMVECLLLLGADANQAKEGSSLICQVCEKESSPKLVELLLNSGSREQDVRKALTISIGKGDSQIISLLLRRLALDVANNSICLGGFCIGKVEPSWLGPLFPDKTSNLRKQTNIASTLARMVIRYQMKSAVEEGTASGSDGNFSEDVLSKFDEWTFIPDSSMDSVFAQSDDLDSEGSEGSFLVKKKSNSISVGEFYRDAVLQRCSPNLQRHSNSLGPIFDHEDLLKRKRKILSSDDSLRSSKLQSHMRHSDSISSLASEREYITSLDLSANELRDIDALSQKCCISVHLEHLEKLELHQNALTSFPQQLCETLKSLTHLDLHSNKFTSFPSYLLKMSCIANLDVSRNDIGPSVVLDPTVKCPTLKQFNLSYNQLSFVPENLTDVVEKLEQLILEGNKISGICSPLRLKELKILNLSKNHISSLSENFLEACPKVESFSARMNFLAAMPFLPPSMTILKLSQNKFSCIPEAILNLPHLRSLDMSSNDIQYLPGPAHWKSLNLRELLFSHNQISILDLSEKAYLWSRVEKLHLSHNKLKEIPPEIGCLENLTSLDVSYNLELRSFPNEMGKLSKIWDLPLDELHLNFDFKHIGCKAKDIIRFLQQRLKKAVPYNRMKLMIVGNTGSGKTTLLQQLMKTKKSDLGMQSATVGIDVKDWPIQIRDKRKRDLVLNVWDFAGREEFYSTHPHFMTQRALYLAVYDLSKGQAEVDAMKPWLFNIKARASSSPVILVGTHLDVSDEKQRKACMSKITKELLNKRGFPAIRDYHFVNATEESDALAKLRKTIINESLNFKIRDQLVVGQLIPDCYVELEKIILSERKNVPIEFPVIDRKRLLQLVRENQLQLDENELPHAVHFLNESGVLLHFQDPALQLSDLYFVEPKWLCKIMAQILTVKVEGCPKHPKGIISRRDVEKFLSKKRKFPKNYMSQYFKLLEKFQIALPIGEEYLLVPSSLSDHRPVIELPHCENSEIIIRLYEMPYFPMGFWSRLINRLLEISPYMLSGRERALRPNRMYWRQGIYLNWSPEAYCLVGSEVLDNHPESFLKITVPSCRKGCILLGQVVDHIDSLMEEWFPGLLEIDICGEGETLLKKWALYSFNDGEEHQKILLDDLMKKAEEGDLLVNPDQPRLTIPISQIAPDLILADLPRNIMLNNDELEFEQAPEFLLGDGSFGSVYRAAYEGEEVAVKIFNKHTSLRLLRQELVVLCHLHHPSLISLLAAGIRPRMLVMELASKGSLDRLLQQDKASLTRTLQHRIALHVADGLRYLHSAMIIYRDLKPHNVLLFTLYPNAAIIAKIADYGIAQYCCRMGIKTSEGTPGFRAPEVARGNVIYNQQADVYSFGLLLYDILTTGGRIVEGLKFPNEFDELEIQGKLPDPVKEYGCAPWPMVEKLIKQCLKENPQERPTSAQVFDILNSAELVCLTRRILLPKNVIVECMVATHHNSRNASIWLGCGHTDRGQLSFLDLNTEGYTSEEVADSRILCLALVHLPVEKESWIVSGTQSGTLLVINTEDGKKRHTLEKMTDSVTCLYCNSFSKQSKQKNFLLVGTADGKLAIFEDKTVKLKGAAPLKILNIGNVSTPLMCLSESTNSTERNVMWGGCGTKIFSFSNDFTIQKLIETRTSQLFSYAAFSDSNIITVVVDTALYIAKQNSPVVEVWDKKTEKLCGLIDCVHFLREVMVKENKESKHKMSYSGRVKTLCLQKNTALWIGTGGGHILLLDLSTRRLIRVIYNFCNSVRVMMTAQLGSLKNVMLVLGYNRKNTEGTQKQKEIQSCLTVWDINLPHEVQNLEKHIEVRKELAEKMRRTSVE
Sequence of CLK1 (P49759 whole entry): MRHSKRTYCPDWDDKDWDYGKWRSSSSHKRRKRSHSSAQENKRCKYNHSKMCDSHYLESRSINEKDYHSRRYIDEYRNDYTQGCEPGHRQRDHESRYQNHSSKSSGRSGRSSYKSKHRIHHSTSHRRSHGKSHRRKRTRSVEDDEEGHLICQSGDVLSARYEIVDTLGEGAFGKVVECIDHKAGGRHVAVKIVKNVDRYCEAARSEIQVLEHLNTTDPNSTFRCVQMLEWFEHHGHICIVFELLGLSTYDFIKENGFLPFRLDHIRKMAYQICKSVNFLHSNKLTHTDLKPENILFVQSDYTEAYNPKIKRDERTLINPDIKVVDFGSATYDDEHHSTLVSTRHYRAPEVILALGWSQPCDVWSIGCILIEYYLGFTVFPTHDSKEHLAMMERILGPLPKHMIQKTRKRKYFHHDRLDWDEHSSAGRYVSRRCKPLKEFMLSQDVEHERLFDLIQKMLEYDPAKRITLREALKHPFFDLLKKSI

C#CCOc1ccc(Nc2ncc(Cl)c(Nc3ccccc3NC(=O)C=C)n2)c(OC)c1 [Compound 6]
Inhibition at 1 µM (%) ([1]; 1 µM, LanthaScreen Binding, listed as WEL028, 1 µM): 11%
inhibition at 1 µM [1, 9]: 14%
inhibition at 1 µM ([1]; read-out: Inhibition at 1 µM (%), 1 µM, LanthaScreen Binding): 17%
inhibition at 1 µM [2, 9]: 36%
Inhibition at 1 µM (%) ([2]; PDK1, 1 µM, ZLYTE, ATP 100, listed as WEL028, 1 µM): 35%
inhibition at 1 µM ([2]; read-out: Inhibition at 1 µM (%), PDK1, 1 µM, ZLYTE, ATP 100): 36%
inhibition at 1 µM [3, 9]: 97%
inhibition at 10 µM ([3]; 1 h, log[inhibitor] (M) -5.00, Adapta, ATP Km app): 100%
inhibition at 3.311 µM ([3]; 1 h, log[inhibitor] (M) -5.48, Adapta, ATP Km app): 100%
inhibition at 1.122 µM ([3]; 1 h, log[inhibitor] (M) -5.95, Adapta, ATP Km app): 100%
inhibition at 0.3715 µM ([3]; 1 h, log[inhibitor] (M) -6.43, Adapta, ATP Km app): 100%
inhibition at 0.123 µM ([3]; 1 h, log[inhibitor] (M) -6.91, Adapta, ATP Km app): 86%
inhibition at 0.04074 µM ([3]; 1 h, log[inhibitor] (M) -7.39, Adapta, ATP Km app): 39%
Inhibition at 1 µM (%) ([3]; LRRK2 FL, 1 µM, Adapta, ATP Km app, listed as WEL028, 1 µM): 96%
inhibition at 1 µM ([3]; read-out: Inhibition at 1 µM (%), LRRK2 FL, 1 µM, Adapta, ATP Km app): 98%
inhibition at 0.1 µM [4]: ~80%
inhibition at 1 µM [5, 9]: 10%
Inhibition at 1 µM (%) [5]: 15%
Inhibition at 1 µM (%) ([5]; listed as WEL028, 1 µM): 5%
Inhibition at 1 µM (%) [6]: 2%
Inhibition at 1 µM (%) ([6]; listed as WEL028, 1 µM): 6%
inhibition at 1 µM [6, 9]: 4%
IC50 [7]: 0.0251 µM
inhibition at 1 µM [7, 9]: 98%
Apparent fold selectivity ([7]; IC50 on that kinase divided by IC50 on FES^S700C): 6 fold
inhibition at 1 µM ([7]; read-out: Inhibition at 1 µM (%), PLK4, 1 µM, LanthaScreen Binding): 99%
inhibition at 1 µM [8, 9]: 5%
Inhibition at 1 µM (%) ([8]; CLK1, 1 µM, ZLYTE, ATP Km app, listed as WEL028, 1 µM): 1% and 8%
